Patent US11040035B2, “3-oxo-2,6-diphenyl-2,3-dihydropyridazine-4-carboxamides” (BAYER PHARMA AKTIENGESELLSCHAFT, priority 2016, dated 2021)

How the values were obtained:
AHR [1] = target: T1, AHR (Homo sapiens, UniProt P35869); assay: In vitro assay 2: agonism in human cell line (transactivation assay)
T1 sequence (P35869 11-848): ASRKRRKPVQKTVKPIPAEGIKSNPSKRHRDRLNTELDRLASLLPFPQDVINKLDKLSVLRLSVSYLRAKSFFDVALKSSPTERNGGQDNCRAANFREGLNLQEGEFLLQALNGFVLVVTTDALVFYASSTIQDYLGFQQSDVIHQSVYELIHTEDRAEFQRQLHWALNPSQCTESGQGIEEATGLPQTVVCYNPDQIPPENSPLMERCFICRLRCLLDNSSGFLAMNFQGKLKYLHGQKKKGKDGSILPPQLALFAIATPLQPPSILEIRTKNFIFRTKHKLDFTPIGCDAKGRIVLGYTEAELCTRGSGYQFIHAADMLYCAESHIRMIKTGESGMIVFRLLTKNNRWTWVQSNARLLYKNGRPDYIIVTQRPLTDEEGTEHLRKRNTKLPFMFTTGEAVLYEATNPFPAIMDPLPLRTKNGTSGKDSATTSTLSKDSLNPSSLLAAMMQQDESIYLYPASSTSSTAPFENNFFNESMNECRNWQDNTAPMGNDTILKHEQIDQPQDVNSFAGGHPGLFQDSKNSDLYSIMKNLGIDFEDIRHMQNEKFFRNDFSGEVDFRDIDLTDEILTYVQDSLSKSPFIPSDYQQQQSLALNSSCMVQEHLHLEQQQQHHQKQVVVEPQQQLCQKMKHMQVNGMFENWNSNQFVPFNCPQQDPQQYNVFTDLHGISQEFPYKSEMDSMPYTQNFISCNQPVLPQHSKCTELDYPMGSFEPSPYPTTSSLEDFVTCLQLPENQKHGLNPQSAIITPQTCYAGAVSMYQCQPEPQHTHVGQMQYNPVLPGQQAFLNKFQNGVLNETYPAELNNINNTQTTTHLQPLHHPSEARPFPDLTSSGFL

AHR [2] = target: T1, AHR; assay: In vitro assay 1: antagonism in human cell line (transactivation assay, kynurenic acid prestimulated)
[3] = Assay 2: AHR-luc Hum Agonism IC50 [M], no kynurenic acid, 20 hours, firefly luciferase
[4] = Assay 1: AHR-luc Hum Antagonism IC50 [M], 150 μM kynurenic acid, 20 hours, firefly luciferase
[5] = read-out: Assay 2: AHR-luc Hum Agonism IC50, no kynurenic acid, 20 hours, firefly luciferase

IC50 (AHR [1]; [3]) | IC50 (AHR [2]; [4]) | IC50 (AHR [1]; [5]) | Molecule | IC50 (AHR [2]; read-out: Assay 1: AHR-luc Hum Antagonism IC50, 150 μM kynurenic acid, 20 hours, firefly luciferase)
1.18e-05 M | > 2e-05 M | – | O=C(NCC(O)C(F)(F)F)c1cc(-c2ccc(C(F)(F)F)cc2)nn(-c2cccc(F)c2)c1=O (racemic) [Example 242, 2-(3-Fluorophenyl)-3-oxo-N-[(2RS)-3,3,3-trifluoro-2-hydroxypropyl]-6-[4-(trifluoromethyl)phenyl]-2,3-dihydropyridazine-4-carboxamide] | –
– | 2.15e-07 M | > 2e-05 M | O=C(NC(CO)C1CCOC1)c1cc(-c2ccc(Cl)cc2)nn(-c2cccc(F)c2)c1=O (single isomer, unassigned) [Example 41, 6-(4-Chlorophenyl)-2-(3-fluorophenyl)-N-[2-hydroxy-1-(tetrahydrofuran-3-yl)ethyl]-3-oxo-2,3-dihydropyridazine-4-carboxamide] | –
> 2e-05 M | 4.98e-07 M | – | NC(=O)CC(CO)NC(=O)c1cc(-c2ccc(Cl)cc2)nn(-c2cccc(F)c2)c1=O (stereo not drawn) [Example 163, N-(4-Amino-1-hydroxy-4-oxobutan-2-yl)-6-(4-chlorophenyl)-2-(3-fluorophenyl)-3-oxo-2,3-dihydropyridazine-4-carboxamide] | –
> 2e-05 M | 2.92e-08 M | – | Cc1ccc(-c2cc(C(=O)NCC(O)C(F)(F)F)c(=O)n(-c3cccc(F)c3)n2)cc1 (stereo not drawn) [Example 4, 2-(3-Fluorophenyl)-6-(4-methylphenyl)-3-oxo-N-(3,3,3-trifluoro-2-hydroxypropyl)-2,3-dihydropyridazine-4-carboxamide] | –
> 2e-05 M | 1.69e-07 M | – | COc1ccc(-c2cc(C(=O)N[C@@H]3CCC[C@H]3O)c(=O)n(-c3cccc(F)c3)n2)cc1 (relative stereo) [Example 154, 2-(3-Fluorophenyl)-N-(trans-2-hydroxycyclopentyl)-6-(4-methoxyphenyl)-3-oxo-2,3-dihydropyridazine-4-carboxamide] | –
– | 6.77e-07 M | > 2e-05 M | O=C(NC(CO)C(F)(F)F)c1cc(-c2ccc(OC(F)(F)F)cc2)nn(-c2cccc(F)c2)c1=O (single isomer, unassigned) [Example 171, 2-(3-Fluorophenyl)-3-oxo-N-(1,1,1-trifluoro-3-hydroxypropan-2-yl)-6-[4-(trifluoromethoxy)phenyl]-2,3-dihydropyridazine-4-carboxamide] | –
> 2e-05 M | 3.67e-08 M | – | O=C(N[C@H]1CCCC[C@@H]1O)c1cc(-c2ccc(Cl)cc2)nn(-c2cccc(F)c2)c1=O (relative stereo) [Example 117, 6-(4-chlorophenyl)-2-(3-fluorophenyl)-N-(trans-2-hydroxycyclohexyl)-3-oxo-2,3-dihydropyridazine-4-carboxamide] | –
> 2e-05 M | 2.11e-07 M | – | COCC(O)CNC(=O)c1cc(-c2ccc(C)cc2)nn(-c2cccc(F)c2)c1=O (single isomer, unassigned; enantiomer 1) [Example 17, 2-(3-Fluorophenyl)-N-(2-hydroxy-3-methoxypropyl)-6-(4-methylphenyl)-3-oxo-2,3-dihydropyridazine-4-carboxamide, Enantiomer 1] | –
– | 2.66e-07 M | > 2e-05 M | O=C(NCC(O)C(F)(F)F)c1cc(-c2ccc(Cl)cc2)nn(-c2ccccc2)c1=O (single isomer, unassigned) [Example 78, 6-(4-chlorophenyl)-3-oxo-2-phenyl-N-(3,3,3-trifluoro-2-hydroxypropyl)-2,3-dihydropyridazine-4-carboxamide] | –
> 2e-05 M | 1.92e-08 M | – | O=C(NC(CO)(CO)C(F)(F)F)c1cc(-c2ccc(Cl)cc2)nn(-c2cccc(F)c2)c1=O [Example 280, 6-(4-Chlorophenyl)-2-(3-fluorophenyl)-3-oxo-N-[1,1,1-trifluoro-3-hydroxy-2-(hydroxymethyl)propan-2-yl]-2,3-dihydropyridazine-4-carboxamide] | –
> 2e-05 M | 3.15e-07 M | – | O=C(N[C@@H](CO)Cc1cnc[nH]1)c1cc(-c2ccc(Cl)cc2)nn(-c2cccc(F)c2)c1=O [Example 161, 6-(4-Chlorophenyl)-2-(3-fluorophenyl)-N-[(2R)-1-hydroxy-3-(1H-imidazol-5-yl)propan-2-yl]-3-oxo-2,3-dihydropyridazine-4-carboxamide] | –
> 2e-05 M | 1.87e-07 M | – | O=C(NC(CO)C1CCOCC1)c1cc(-c2ccc(Cl)cc2)nn(-c2cccc(F)c2)c1=O (stereo not drawn) [Example 149] | –
> 2e-05 M | 1.69e-08 M | – | CN(C)c1ccc(-c2cc(C(=O)N[C@H](CO)C(F)(F)F)c(=O)n(-c3cccc(F)c3)n2)cc1Cl [Example 373, 6-[3-chloro-4-(dimethylamino)phenyl]-2-(3-fluorophenyl)-3-oxo-N-[(2R)-1,1,1-trifluoro-3-hydroxypropan-2-yl]-2,3-dihydropyridazine-4-carboxamide] | –
– | 6.58e-08 M | > 2e-05 M | Cc1ccc(-c2cc(C(=O)NCC(O)C(F)(F)F)c(=O)n(-c3cccc(F)c3)n2)cc1 (single isomer, unassigned; enantiomer 2) [Example 6, 2-(3-Fluorophenyl)-6-(4-methylphenyl)-3-oxo-N-(3,3,3-trifluoro-2-hydroxypropyl)-2,3-dihydropyridazine-4-carboxamide, enantiomer 2] | –
> 2e-05 M | 1.54e-08 M | – | O=C(NCC(O)C(F)(F)F)c1cc(-c2ccc(C(F)F)cc2)nn(-c2cccc(F)c2)c1=O (stereo not drawn) [Example 94, 6-[4-(Difluoromethyl)phenyl]-2-(3-fluorophenyl)-3-oxo-N-(3,3,3-trifluoro-2-hydroxypropyl)-2,3-dihydropyridazine-4-carboxamide] | –
> 2e-05 M | 9.7e-07 M | – | Cc1cccc(-n2nc(-c3ccc(Cl)cc3)cc(C(=O)NCC(O)C(F)(F)F)c2=O)c1 (stereo not drawn) [Example 366, 6-(4-chlorophenyl)-2-(3-methylphenyl)-3-oxo-N-(3,3,3-trifluoro-2-hydroxypropyl)-2,3-dihydropyridazine-4-carboxamide] | –
> 2e-05 M | 1.14e-07 M | – | CC(C)(O)C(O)CNC(=O)c1cc(-c2ccc(Cl)cc2)nn(-c2cccc(F)c2)c1=O (racemic) [Example 322, 6-(4-chlorophenyl)-N-[(2RS)-2,3-dihydroxy-3-methylbutyl]-2-(3-fluorophenyl)-3-oxo-2,3-dihydropyridazine-4-carboxamide] | –
> 2e-05 M | 2.75e-07 M | – | CC(O)C(C)NC(=O)c1cc(-c2ccc(Cl)c(Cl)c2)nn(-c2cccc(F)c2)c1=O (stereo not drawn) [Example 304, 6-(3,4-Dichlorophenyl)-2-(3-fluorophenyl)-N-(3-hydroxybutan-2-yl)-3-oxo-2,3-dihydropyridazine-4-carboxamide] | –
> 2e-05 M | 8e-07 M | – | C[C@@H](CO)NC(=O)c1cc(-c2ccc(Cl)cc2)nn(-c2cccc(C#N)c2)c1=O [Example 400, 6-(4-chlorophenyl)-2-(3-cyanophenyl)-N-[(2S)-1-hydroxypropan-2-yl]-3-oxo-2,3-dihydropyridazine-4-carboxamide] | –
– | 2.4e-07 M | > 2e-05 M | COc1ccc(-c2cc(C(=O)N[C@@H]3CCCC[C@@H]3O)c(=O)n(-c3cccc(F)c3)n2)cc1 (single isomer, unassigned) [Example 108, 2-(3-Fluorophenyl)-N-(cis-2-hydroxycyclohexyl)-6-(4-methoxyphenyl)-3-oxo-2,3-dihydropyridazine-4-carboxamide] | –
> 2e-05 M | 1.36e-07 M | – | C[C@H](O)[C@H](CO)NC(=O)c1cc(-c2ccc(Cl)cc2)nn(-c2cccc(F)c2)c1=O [Example 132, 6-(4-Chlorophenyl)-N-[(2S,3S)-1,3-dihydroxybutan-2-yl]-2-(3-fluorophenyl)-3-oxo-2,3-dihydropyridazine-4-carboxamide] | –
> 2e-05 M | 6.97e-08 M | – | COc1ccc(-c2cc(C(=O)N[C@@H]3CCC[C@@H]3O)c(=O)n(-c3cccc(F)c3)n2)cc1 [Example 139, 2-(3-Fluorophenyl)-N-[(1R,2S)-2-hydroxycyclopentyl]-6-(4-methoxyphenyl)-3-oxo-2,3-dihydropyridazine-4-carboxamide] | –

Molecule | IC50 (AHR [1]; [3]) | IC50 (AHR [2]; [4]) | IC50 (AHR [1]; [5]) | IC50 (AHR [2]; read-out: Assay 1: AHR-luc Hum Antagonism IC50, 150 μM kynurenic acid, 20 hours, firefly luciferase)
2-(3-Fluorophenyl)-N-{(2-hydroxy-1-[tetrahydrofuran-3-yl]ethyl}-6-(4-methoxyphenyl)-3-oxo-2,3-dihydropyridazine-4-carboxamide [Example 158] | – | – | > 2e-05 M | 2.75e-07 M
Cc1ccc(-c2cc(C(=O)NCC(O)C(F)(F)F)c(=O)n(-c3cc(F)cc(F)c3)n2)cc1 (single isomer, unassigned) [Example 53, 2-(3,5-Difluorophenyl)-6-(4-methylphenyl)-3-oxo-N-(3,3,3-trifluoro-2-hydroxypropyl)-2,3-dihydropyridazine-4-carboxamide] | > 2e-05 M | 8.85e-09 M | – | –
